# Activity calls are given as the source filed them.
# What was measured:
# [1] = RKO cell viability reduction, dose response, CellTiter-Glo luminescence (AID 1117322); assay type: functional
# [2] = biological target: Heat shock protein HSP 90-alpha (Homo sapiens, UniProt P07900); assay type: functional, organism-based
# Caspase-6 = biological target: T1, Caspase-6 (Homo sapiens, UniProt P55212); experiment: human caspase-6 inhibitors, dose response, biochemical, VEID-R110 fluorescence, cherry-pick (AID 720632)
# T1 sequence (P55212 whole entry): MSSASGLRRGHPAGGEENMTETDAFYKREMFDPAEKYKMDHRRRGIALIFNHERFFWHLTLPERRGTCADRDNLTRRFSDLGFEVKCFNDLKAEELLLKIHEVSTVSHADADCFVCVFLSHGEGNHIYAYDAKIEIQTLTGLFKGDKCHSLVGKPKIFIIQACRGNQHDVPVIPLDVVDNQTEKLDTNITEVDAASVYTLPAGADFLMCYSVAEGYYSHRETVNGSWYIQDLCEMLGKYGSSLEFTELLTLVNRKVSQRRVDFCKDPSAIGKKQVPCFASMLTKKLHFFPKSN
# [3] = cytotoxicity toward DRD oncogenic fibroblasts, dose response, cell-based, non-viral oncogenic, luminescence (AID 1934); assay type: functional; settings: Homo sapiens
# [4] = Concentration-dependent survival of SW480 colon cancer line, luminescence detection with CellTiter-Glo, half-maximal inhibitory concentration (AID 1117338); assay type: functional
# [5] = C. albicans growth with fluconazole, confirmation, fluorescence, retest (AID 2467); assay type: functional, cell-based
# [6] = HEK293 cell cytotoxicity, dose response, cytotoxicity control, plate reader, cherry-picked samples (AID 743446); assay type: functional, cell-based
# [7] = biological target: Photoreceptor-specific nuclear receptor (Homo sapiens, UniProt Q9Y5X4); assay type: functional, cell-based;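 further: CHO-S cells with Gal4-NCOR and VP16-NR2E3 two-hybrid luciferase reporter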
# [8] = cytotoxicity toward Colo320 cells – cell-based, CellTiter-Glo luminescence, IC50, dose response (AID 1117334); assay type: functional; settings: COLO 320
# [9] = CellTiter-Glo luminescent dose response of DLD-1 viability loss (AID 1117352); assay type: functional
# Protein RecA = biological target: T2, Protein RecA (Mycobacterium tuberculosis, UniProt P9WHJ3); experiment: Fluorescence Cell-Free Homogeneous Dose Retest to Identify Inhibitors of RecA-Intein Splicing Activity. [Related pubchem assays (depositor defined):AID2097, AID2223, AID489010, AID492950]; assay type: functional
# T2 sequence (P9WHJ3 whole entry): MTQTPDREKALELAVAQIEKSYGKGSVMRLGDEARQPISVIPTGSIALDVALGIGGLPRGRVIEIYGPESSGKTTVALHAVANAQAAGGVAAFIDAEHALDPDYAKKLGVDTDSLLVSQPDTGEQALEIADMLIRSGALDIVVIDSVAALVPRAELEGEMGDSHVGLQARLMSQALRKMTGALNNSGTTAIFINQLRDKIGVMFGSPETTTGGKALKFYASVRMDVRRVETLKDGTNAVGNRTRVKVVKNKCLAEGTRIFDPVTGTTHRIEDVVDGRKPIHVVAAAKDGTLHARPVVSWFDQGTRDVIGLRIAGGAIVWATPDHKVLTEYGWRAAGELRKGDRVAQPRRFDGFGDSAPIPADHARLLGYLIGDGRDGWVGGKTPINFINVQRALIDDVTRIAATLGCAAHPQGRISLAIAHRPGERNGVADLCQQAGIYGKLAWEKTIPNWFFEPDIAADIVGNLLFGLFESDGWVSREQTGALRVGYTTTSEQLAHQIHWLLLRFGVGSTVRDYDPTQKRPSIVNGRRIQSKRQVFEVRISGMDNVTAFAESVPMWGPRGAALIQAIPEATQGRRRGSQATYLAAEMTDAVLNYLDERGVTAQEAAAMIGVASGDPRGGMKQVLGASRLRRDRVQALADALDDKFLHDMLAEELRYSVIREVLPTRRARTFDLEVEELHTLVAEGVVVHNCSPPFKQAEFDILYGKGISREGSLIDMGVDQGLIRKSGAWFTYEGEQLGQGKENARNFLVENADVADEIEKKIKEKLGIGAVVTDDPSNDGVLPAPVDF
# [10] = HeLa 2N DNA content increase, dose response, cell-based, IC50 (AID 1117349); assay type: functional
# [11] = cytotoxicity toward HCT116 cells – cell-based, CellTiter-Glo luminescence, IC50, dose response (AID 1117332); assay type: functional; settings: HCT-116
# BJ [12] = experiment: cytotoxicity toward BJ-TERT-LT-ST fibroblasts, dose response, cell-based, RAS-independent, luminescence (AID 1935); assay type: functional; settings: Homo sapiens;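 further: BJ fibroblasts immortalized with TERT plus LT and ST oncogenes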
# [13] = NIH-3T3 fibroblast cytotoxicity, dose response, cytotoxicity control, cell-based, fluorescence, Alamar Blue, secondary assay (AID 2327); assay type: functional;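 further: NIH-3T3 mouse fibroblasts cultured with fluconazole at 8 µg/mL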
# BJ [14] = experiment: cells; assay type: functional, cell-based; settings: Homo sapiens
# [15] = HCT116 cell viability decrease, GSK3B pretreatment – CellTiter-Glo, IC50, dose response (AID 1117339); assay type: functional; settings: HCT-116
# [16] = cytotoxicity toward HT-29 cells – cell-based, CellTiter-Glo luminescence, IC50, dose response (AID 1117330); assay type: functional
# [17] = SNU-C1 cell viability reduction, dose response, CellTiter-Glo luminescence (AID 1117323); assay type: functional, cell-based
# [18] = MC4R antagonists, dose response, counter-screen for LGR2 antagonist project, cell-based, plate reader, cherry pick (AID 743444); assay type: functional;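 further: transfected HEK 293 cells stimulated with alpha-MSH peptide; potency of inhibitors of the alpha-MSH evoked signal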
# BJ [19] = experiment: cytotoxicity toward BJ-TERT fibroblasts, dose response, cell-based, RAS-independent, luminescence (AID 1933); assay type: functional; settings: Homo sapiens
# [20] = LGR2 antagonists, dose response, cell-based, HEK293, CRE-luciferase reporter, cherry pick, set 2 (AID 743343); assay type: functional;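 further: transfected cells were stimulated with diluted bursicon conditioned medium after compound addition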
# [21] = biological target: T3, Replicative DNA helicase DnaB (Mycobacterium tuberculosis, UniProt P9WMR3); experiment: DnaB intein splicing inhibitors, dose response, biochemical, cell-free fluorescence (AID 449749); assay type: functional
# T3 sequence (P9WMR3 whole entry): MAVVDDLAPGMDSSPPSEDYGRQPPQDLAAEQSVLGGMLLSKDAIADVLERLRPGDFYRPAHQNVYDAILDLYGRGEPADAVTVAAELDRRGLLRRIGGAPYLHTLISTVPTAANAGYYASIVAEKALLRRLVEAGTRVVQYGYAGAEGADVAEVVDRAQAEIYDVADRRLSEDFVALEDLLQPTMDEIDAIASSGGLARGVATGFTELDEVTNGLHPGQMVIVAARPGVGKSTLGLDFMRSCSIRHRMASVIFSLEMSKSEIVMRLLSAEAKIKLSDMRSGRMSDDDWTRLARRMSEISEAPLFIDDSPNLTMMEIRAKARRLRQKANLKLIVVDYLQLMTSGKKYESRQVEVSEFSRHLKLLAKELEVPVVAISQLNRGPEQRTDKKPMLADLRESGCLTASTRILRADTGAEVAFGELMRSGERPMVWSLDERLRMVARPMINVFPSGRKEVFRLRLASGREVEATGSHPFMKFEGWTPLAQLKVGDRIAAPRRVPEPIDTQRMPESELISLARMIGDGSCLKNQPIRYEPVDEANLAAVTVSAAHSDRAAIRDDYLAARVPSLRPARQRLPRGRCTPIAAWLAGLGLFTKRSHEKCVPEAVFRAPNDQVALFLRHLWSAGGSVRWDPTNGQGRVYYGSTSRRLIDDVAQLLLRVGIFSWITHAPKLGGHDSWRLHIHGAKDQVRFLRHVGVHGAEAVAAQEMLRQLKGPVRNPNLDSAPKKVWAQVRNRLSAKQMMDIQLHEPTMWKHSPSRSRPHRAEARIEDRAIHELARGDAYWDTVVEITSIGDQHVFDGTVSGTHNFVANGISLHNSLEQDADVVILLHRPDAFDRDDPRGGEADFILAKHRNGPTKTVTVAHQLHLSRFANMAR
# [22] = HeLa 4N DNA content increase, dose response, cell-based, IC50 (AID 1117351); assay type: functional
# [23] = HepG2 cell cytotoxicity, dose response, cytotoxicity control, plate reader, cherry-pick, antagonist series (AID 743416); assay type: functional, cell-based
# [24] = A549 cell cytotoxicity, dose response, cytotoxicity control, plate reader, cherry-pick, antagonist series (AID 743412); assay type: functional, cell-based
# [25] = THP-1 cell cytotoxicity, dose response, cytotoxicity control for Vif-APOBEC3G degradation inhibitor project, THP-1 cells (AID 1117359); assay type: functional; settings: Human immunodeficiency virus 1, THP-1
# Nonstructural protein 1 = Nonstructural protein 1 (Influenza A virus, UniProt Q194T2); assay type: functional, Influenza A virus (A/California/07/2009(H1N1))
# [26] = biological target: T4, Corticotropin-releasing factor receptor 2/Corticotropin-releasing factor-binding protein (Homo sapiens, UniProt P24387+Q13324); experiment: activators of CRF receptor 2 with binding protein – uHTS hits, confirmation (AID 602473); assay type: functional; settings: read-out: EC50_Mean
# T4 sequence (Q13324 whole entry): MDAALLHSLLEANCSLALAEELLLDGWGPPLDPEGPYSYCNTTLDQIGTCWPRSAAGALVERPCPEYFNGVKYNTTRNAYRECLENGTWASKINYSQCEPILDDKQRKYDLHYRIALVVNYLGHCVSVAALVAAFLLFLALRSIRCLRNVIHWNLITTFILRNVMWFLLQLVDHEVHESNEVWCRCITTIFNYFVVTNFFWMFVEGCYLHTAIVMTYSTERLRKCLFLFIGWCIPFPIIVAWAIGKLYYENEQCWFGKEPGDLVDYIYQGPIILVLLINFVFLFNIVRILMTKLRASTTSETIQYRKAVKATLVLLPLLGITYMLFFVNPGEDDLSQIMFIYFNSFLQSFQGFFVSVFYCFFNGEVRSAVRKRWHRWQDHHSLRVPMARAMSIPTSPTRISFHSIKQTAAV
# T4 sequence (P24387 whole entry): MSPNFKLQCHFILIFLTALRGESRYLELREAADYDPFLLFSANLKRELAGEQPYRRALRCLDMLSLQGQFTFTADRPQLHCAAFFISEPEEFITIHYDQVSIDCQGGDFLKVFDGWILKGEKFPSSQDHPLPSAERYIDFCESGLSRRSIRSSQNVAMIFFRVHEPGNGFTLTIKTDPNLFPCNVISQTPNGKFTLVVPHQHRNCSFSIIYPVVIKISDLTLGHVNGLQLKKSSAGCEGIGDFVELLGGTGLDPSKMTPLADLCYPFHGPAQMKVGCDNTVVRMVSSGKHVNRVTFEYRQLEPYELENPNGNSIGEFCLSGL
# [27] = CRF-BP/CRF-R2 complex antagonists, dose response, cell-based, uHTS hits, 384-well (AID 651639); assay type: functional, Homo sapiens; settings: read-out: IC50_Mean
# [28] = biological target: T4, Corticotropin-releasing factor receptor 2/Corticotropin-releasing factor-binding protein; experiment: Dose Response confirmation of uHTS hits for small molecule antagonists of the CRF-binding protein and CRF-R2 receptor complex.; assay type: functional; settings: read-out: IC50_Mean
# Nonstructural protein 1, sequence (Q194T2 whole entry): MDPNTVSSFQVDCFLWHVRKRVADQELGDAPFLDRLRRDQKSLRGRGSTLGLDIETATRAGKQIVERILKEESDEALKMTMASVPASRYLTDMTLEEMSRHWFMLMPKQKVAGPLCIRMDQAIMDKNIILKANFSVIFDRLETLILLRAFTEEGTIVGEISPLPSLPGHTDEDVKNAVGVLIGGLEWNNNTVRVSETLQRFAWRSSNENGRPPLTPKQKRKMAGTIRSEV
# Photoreceptor-specific nuclear receptor, sequence (Q9Y5X4 whole entry, the tested form may be a part): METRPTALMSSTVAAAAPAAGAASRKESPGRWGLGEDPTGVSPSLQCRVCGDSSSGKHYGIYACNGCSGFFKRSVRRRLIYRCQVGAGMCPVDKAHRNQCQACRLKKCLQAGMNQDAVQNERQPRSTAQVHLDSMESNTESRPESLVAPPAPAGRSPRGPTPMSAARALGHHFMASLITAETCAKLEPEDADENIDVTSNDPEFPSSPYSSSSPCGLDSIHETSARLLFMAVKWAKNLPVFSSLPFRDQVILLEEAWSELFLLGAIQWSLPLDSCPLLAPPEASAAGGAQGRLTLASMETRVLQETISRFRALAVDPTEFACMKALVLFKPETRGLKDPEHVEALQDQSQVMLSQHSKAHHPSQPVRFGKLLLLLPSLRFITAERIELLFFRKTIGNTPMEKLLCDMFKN
smiles,measurement,setting,value
O=[N+]([O-])c1ccc(O)c2ncccc12 [NITROXOLINE],IC50,[1],0.71 µM (active)
same,AC50,[2],0.996 µM (active)
same,AC50,Caspase-6,14.9 µM (active)
same,EC50,[3],16.6 µM (active)
same,IC50,[4],0.605 µM (active)
same,EC50,[5],0.161 µM (active)
same,AC50,[6],11.5 µM (active)
same,IC50,[7],8.96 µM (active)
same,IC50,[8],0.684 µM (active)
same,IC50,[9],1.38 µM (active)
same,EC50,Protein RecA,14.4 µM (active)
same,IC50,[10],1.7 µM (active)
same,IC50,[11],0.921 µM (active)
same,EC50,BJ [12],16.7 µM (inconclusive)
same,EC50,[13],9.52 µM (inconclusive)
same,EC50,BJ [14],28.8 µM (active)
same,IC50,[15],0.375 µM (active)
same,IC50,[16],> 20 µM (inactive)
same,IC50,[17],> 20 µM (inactive)
same,AC50,[18],48.7 µM (active)
same,EC50,BJ [19],9.44 µM (active)
same,AC50,[20],54.9 µM (active)
same,AC50,[21],9.95 µM (active)
same,IC50,[22],> 10 µM (inactive)
same,AC50,[23],9.7 µM (active)
same,AC50,[24],12.1 µM (active)
same,CC50,[25],5.53 µM (active)
same,IC50,Nonstructural protein 1,4.72 µM (active)
Cc1cc(C)cc(N(C(=O)c2nsc(Cl)c2Cl)C(C(=O)NC2CCCC2)c2ccc(O)cc2)c1 (stereo unspecified),EC50,[26],> 53 µM (inactive)
same,IC50,[27],> 20 µM (inactive)
same,IC50,[28],6.02 µM (active)

# Source: ChEMBL document CHEMBL1201862, “PubChem BioAssay data set” (2004)
